# Residue numbers refer to the chain shown, from its start. Entries after “also recorded” stand apart in the source; their conditions may differ. Like-named read-outs stand apart in the source and are kept apart here.
# B1: HMGB1: alarmin; highly purified HMGB-1 (protein, UniProt P09429 1-215, looked up)
# High mobility group protein B1: MGKGDPKKPRGKMSSYAFFVQTCREEHKKKHPDASVNFSEFSKKCSERWKTMSAKEKGKFEDMAKADKARYEREMKTYIPPKGETKKKFKDPNAPKRPPSAFFLFCSEYRPKIKGEHPGLSIGDVAKKLGEMWNNTAADDKQPYEKKAAKLKEKYEKDIAAYRAKGKPDAAKKGVVKAEKSKKKKEEEEDEEDEEDEEEEEDEEDEDEEEDDDDE
# B2: rmHMGB1: exogenous alarmin rmHMGB1 added locally at the fracture site (protein, UniProt P63158 1-215, looked up)
# High mobility group protein B1: B1 High mobility group protein B1 with E189D, D202E
# B3: recombinant murine IL-10: an anti-inflammatory cytokine (protein, UniProt P18893 19-178, looked up)
# Interleukin-10: SRGQYSREDNNCTHFPVGQSHMLLELRTAFSQVKTFFQTKDQLDNILLTDSLMQDFKGYLGCQALSEMIQFYLVEVMPQAEKHGPEIKEHLNSLGEKLKTLRMRLRRCHRFLPCENKSKAVEQVKSDFNKLQDQGVYKAMNEFDIFINCIEAYMMIKMKS
# B4: murine S100A8: murine alarmin S100A8 used on mouse bone marrow cells (protein, UniProt P27005 2-89, looked up)
# Protein S100-A8: PSELEKALSNLIDVYHNYSNIQGNHHALYKNDFKKMVTTECPQFVQNINIENLFRELDINSDNAINFEEFLAMVIKVGVASHKDSHKE
# B5: S100A9: alarmin (protein, UniProt P06702 1-114, looked up)
# Protein S100-A9: MTCKMSQLERNIETIINTFHQYSVKLGHPDTLNQGEFKELVRKDLQNFLKKENKNEKVIEHIMEDLDTNADKQLSFEEFIMLMARLTWASHEKMHEGDEGPGHHHKPGLGEGTP
# B6: S100A8/9: alarmin (protein, UniProt P05109 1-93; P06702 1-114, looked up)
# Protein S100-A8: MLTELEKALNSIIDVYHKYSLIKGNFHAVYRDDLKKLLETECPQYIRKKGADVWFKELDINTDGAVNFQEFLILVIKMGVAAHKKSHEESHKE
# Protein S100-A9: B5 Protein S100-A9
# Legend:
# [1] = test system: human muscle-derived stromal cells; conditions: cited from earlier work
# [2] = test system: intramuscular bone-inducing implant; conditions: daily intra-peritoneal administration; cited from earlier work
# [3] = human, in vivo, cited from earlier work
# tibial fracture [4] = test: murine tibial fracture model: callus mineralization (microCT) and histology after local administration at fracture site; format: in vivo, mouse
# rib fracture = conditions: cited from earlier work
# tibial fracture [5] = test: murine tibial fracture model: callus mineralization (microCT) and histology after local administration at fracture site; format: in vivo, mouse; conditions: for fracture healing / callus mineralization: local, approx. 1 ng or 50 ng/kg (50 ng/ml, 20 microlitres PBS) at time of fracture and 24 hr later, day 28; for fracture healing / percentage callus mineralization: exogenous alarmin at fracture site days 0 and 1 (rmHMGB1 20 μL at 50 ng/ml), day 28 microCT
# Experimental: Percentage callus mineralization was determined from the fracture site to 1 mm proximally (mean+/−SEM). FIG. 5. Dose response of exogenous TNF-α in vivo. 20 μL of PBS with rhTNF-α at the corresponding dose was injected at the fracture site at days 0 and 1 in C57BI/6 mice. At day 28, mice were harvested and limbs scanned by microCT in a blinded fashion. Percentage callus mineralization was determined from the fracture site to 1 mm proximally (threshold density of 350 mg/cm^3). * p<0.05, ** p<0.01. FIG. 7A. […] Percentage callus mineralization was determined from the fracture site to 1 mm proximally (mean+/−SEM). FIG. 18. […] C57BI6 mice were subjected to fracture model with addition of 20 μL of rmHMGB1 at 50 ng/ml at the fracture site at days 0 and 1 compared to controls. Addition of exogenous S100A8 or S100A9 or S100A8/9 had no effect, possibly because the fracture environment may already contain optimal amounts of S100 A8 or A9 proteins. All mice were harvested at day 28 and limbs scanned by microCT in a blinded fashion. Percentage callus mineralization was determined from the fracture site to 1 mm proximally (mean+/−SEM). […] Inflammation plays a vital role in early fracture repair^11,12. In murine models, TNF-α, IL-1 and IL-6 are expressed at the fracture site within 24 hours of injury^13,14. Biphasic expression of TNF-α and IL-1β appears to be linked to the initiation of fracture repair and later to endochondral maturation^14,15. In our murine model, callus mineralization at day 28 was enhanced when TNF-α, at a concentration of 50 ng/kg was injected locally following injury (day 0) and 24 hours later.
# osteoporotic fracture = osteoporotic fracture repair in ovariectomised mice, callus mineralization by microCT; format: in vivo, mouse; conditions: for percentage callus mineralization / fracture healing: day 14, 20 μL rhTNF-α 50 ng/ml immediately post fracture and 1 day later, vs PBS
# Experimental: FIG. 6. Addition of exogenous TNF-α accelerates osteoporotic fracture repair in vivo. 20 μL of rhTNF-α at 50 ng/ml was injected at the fracture site immediately post fracture and 1 day later. Osteoporosis was induced by ovariectomising mice 4 weeks prior to surgery. (A). At day 14, mice were harvested and limbs scanned by microCT in a blinded fashion. […] At day 28 post fracture the percentage mineralised callus volume in the three groups (normal, those that had undergone oophorectomy and oophrectomised animals treated with TNF-α) were similar. […] (B).
# We have investigated the effect of adding recombinant human TNF-α at the fracture site in mice rendered osteoporotic by oophorectomy 4 weeks previously.
# PBMCs = test: TNF-α production by PBMCs (ELISA, 14 hours); format: cell-based, human; conditions: for TNF-α production by PBMCs: PBMCs 1*10^5/ml, 10% FCS, alarmin at indicated doses
# Experimental: FIG. 10. […] (A) PBMCs at 1*10^5/ml were incubated in 10% fetal calf serum (FCS) with S100 A8 at indicated doses. […] (B) PBMCs at 1*10^5/ml were incubated in 10% FCS with S100 A8 at 0.5 μg/ml with the addition of either antibody to TLR4, TLR2 or isotype controls (not shown), or sRAGE over 14 hours. TNF-α levels were determined by ELISA.
# FIG. 12. […] PBMCs at 1*10^5/ml were incubated in 10% FCS with S100 A8, S100 A9 or S100 A12 at the indicated doses over 14 hours. TNF-α levels were determined by ELISA.
# FIG. 17. […] PBMCs at 1*10^5/ml were incubated in 10% FCS with HMGB1 or LPS at the indicated doses over 14 hours; TNF-α levels were determined by ELISA.
# bone marrow cells = test: TNF-α production by bone marrow cells from wild type, TLR-4 and MyD88 knockout mice; format: cell-based, mouse; conditions: WT, TLR-4 and MyD88 knockout bone marrow cells
# Description: FIG. 11. TNF-α production by bone marrow cells from wild type (WT), TLR-4 and MyD88 knockout mice treated with murine S100A8.
molecule,measurement,setting,value
IL-1β: pro-inflammatory cytokine with some osteogenic activity in vitro,bone nodule formation in vitro,"[1]; cytokine alone, human specimens",does not promote bone nodule formation
same,alkaline phosphatase production,[1]; human muscle-derived stromal cells,increased alkaline phosphatase production
TNF-α,effect at 10 fold increase beyond optimal range,[1]; 10 ng/ml,significant diminution in effect
same,migration and osteogenic differentiation of MDSC,[1],can migrate and differentiate upon stimulation; also recorded: clear concentration dependency; also recorded: accelerates bone formation within a narrow therapeutic window and is inhibitory at high concentrations
same,optimal in vitro dose,[1],0.1 to 1 ng/mL
same,bone formation around implant,[2],inhibited bone formation
same,"adverse effect, highest doses administered repeatedly",[3]; sc,minor local reactions
same,"adverse effect, highest doses administered repeatedly",[3],clinically insignificant thrombocytopaenia
same,single doses found safe,[3],up to 400 micrograms
same,histology of tibial fracture,"tibial fracture [4]; 14 days post injury, local TNF-α 50 ng/kg body weight (1 ng/ml) in PBS",complete bridging of the fracture site by hard callus (bone) and remodelling of the fracture callus
same,fracture healing,rib fracture; 40 μg/kg/day,(non significant) improvement in fracture healing
same,fracture healing,rib fracture; daily intra-peritoneal 400 μg/kg,impaired healing
same,callus mineralization at day 28,"tibial fracture [5]; ""high"" dose of 5-100 μg/kg",significantly less callus mineralization
same,callus mineralization at day 28,"tibial fracture [5]; ""low"" dose of 50 pg/kg",indistinguishable from the PBS only control
same,fracture healing compared to PBS control,tibial fracture [5]; doses of 10 pg to 1 ng at fracture site (FIG. 5),significantly accelerated healing
same,fracture healing / callus mineralization,tibial fracture [5],effective in promoting bone formation and accelerating fracture healing; also recorded: enhanced; also recorded: significantly accelerated healing of the fracture
same,fracture healing / callus mineralization,tibial fracture [5]; listed as rhTNF-α,accelerate callus mineralization
same,percentage callus mineralization / fracture healing,osteoporotic fracture,significantly greater
same,percentage callus mineralization / fracture healing,osteoporotic fracture; listed as recombinant human TNF-α,significantly accelerated fracture healing
same,percentage mineralised callus volume,"osteoporotic fracture; day 28 post fracture, normal vs oophorectomy vs oophorectomy + TNF-α",similar
same,3D reconstructions of fracture site,osteoporotic fracture; rhTNF-α group vs PBS control,bridging of the fracture site with callus and ossification of the cartilaginous intermediary as well as remodelling of the ossified callus
B1,"TNF-α production by PBMCs, HMGB1 with addition of LPS",PBMCs; HMGB1 and LPS at indicated doses,synergistic effect
same,TNF-α production by PBMCs,PBMCs,not pro-inflammatory in isolation in vitro
same,TNF-α production by PBMCs,PBMCs; listed as HMGB-1,did not lead to TNF-α production
same,fracture healing,"tibial fracture [5]; 1 mg/ml at fracture site at days 0 and 1, 28 days post fracture",significantly (p=0.02) accelerated healing
same,fracture healing / percentage callus mineralization,tibial fracture [5],accelerated healing; also recorded: accelerates fracture healing
B2,fracture healing / percentage callus mineralization,tibial fracture [5],accelerates fracture; also recorded: improves callus mineralisation
B3,fracture healing as percentage mineralized callus volume,"tibial fracture [4]; 14 days post fracture, administered at fracture site",inhibition of fracture healing
B4,receptor dependence of TNF-α production,bone marrow cells,largely dependent on TLR-4 receptor and absolutely dependent on MyD88
B5,TNF-α production by PBMCs,PBMCs,much lower effect than S100A8
same,TNF-α production by PBMCs,PBMCs; listed as S100 A9,much less potent than S100 A8
same,fracture healing / percentage callus mineralization,tibial fracture [5],no effect
B6,TNF-α production by PBMCs,PBMCs,no activity
same,fracture healing / percentage callus mineralization,tibial fracture [5],no effect

# — US20140056960A1, “Methods for Improving Fracture Healing and Bone Formation” (Imperial Innovations Limited, priority 2010, published 2014)
